Laboratory results reported in publication PMC8165160, “Substrate Specificities and Inhibition Pattern of the Solute Carrier Family 10 Members NTCP, ASBT and SOAT” (Frontiers in Molecular Biosciences, 2021).
Where a name gives a salt, the structure may show the parent alone. Read-outs that look alike come from different tables or passages of the source.

Key:
SOAT [1] = molecular target: T1, SOAT (Homo sapiens, UniProt Q3KNW5); test: Substrate screening: sodium-dependent uptake of radiolabeled compounds in SOAT-HEK293 cells; format: cell-based; details: SOAT-HEK293, vs sodium-free control
T1 construct: The full-length open reading frames of NTCP, ASBT, and SOAT were cloned; expressed in transfected cells; host or cells: Flp-In T-REX HEK293 (SOAT-HEK293), tetracycline-induced
T1 sequence (Q3KNW5 1-377): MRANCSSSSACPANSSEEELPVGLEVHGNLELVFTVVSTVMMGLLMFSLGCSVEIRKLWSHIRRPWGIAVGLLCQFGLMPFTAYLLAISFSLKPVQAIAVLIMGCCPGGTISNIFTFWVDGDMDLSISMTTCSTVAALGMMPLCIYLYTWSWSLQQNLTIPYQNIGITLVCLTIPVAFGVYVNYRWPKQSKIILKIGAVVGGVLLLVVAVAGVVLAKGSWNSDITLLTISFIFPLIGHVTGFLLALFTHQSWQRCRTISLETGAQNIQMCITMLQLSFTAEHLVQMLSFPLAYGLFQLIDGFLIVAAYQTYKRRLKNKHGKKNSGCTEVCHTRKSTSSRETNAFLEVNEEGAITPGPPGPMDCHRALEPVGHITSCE
Method: (§1) Stably SLC10 transporter transfected NTCP-HEK293, ASBT-HEK293, SOAT-HEK293 cells and the HEK293-FlpIn maternal cell line were seeded on 24-well plates (if not stated otherwise for individual assays). Well plates were coated with poly-D-lysine prior to seeding of 125,000 cells per well. Cells were grown with 1 ml of standard medium per well with or without tetracycline ([…]) for 72 h to induce carrier expression before respective assays were started. HEK293-FlpIn cells were cultivated with standard medium and served as control.
(§2) Uptake experiments were initiated by replacing the preincubation buffer by 500 μL transport buffer containing the radiolabeled test compound and were performed at 37°C. Transport was terminated by removing the transport buffer and washing five-times with ice-cold PBS. Cell monolayers were lysed in 1 N NaOH with 0.1% SDS and the cell-associated radioactivity was determined by liquid scintillation counting.
(§3) FIGURE 1 Comparative substrate screening for bile acids and sulfated steroids in NTCP-, ASBT-, and SOAT-HEK293 cells. Transport assays were performed with the indicated substrates in NTCP-HEK293, ABST-HEK293, SOAT-HEK293, and HEK293-FlpIn cells. Cells were washed and equilibrated with Na^+-containing transport buffer (filled bars) or with Na^+-free transport buffer (open bars) at 37°C. For uptake, cells were incubated with radiolabeled steroid compounds at a final concentration of 200 nM in Na^+-containing or Na^+-free transport buffer for 10 min. Radiolabeled bile acids were used at 1 µM concentrations and transport was analyzed over 30 min. HEK293-FlpIn cells served as additional controls. After the indicated time intervals, cells were washed with ice-cold PBS, lysed and subjected to liquid scintillation counting. […] 3-OH, trihydroxylated BAs; 2-OH, dihydroxylated BAs; 1-OH, monohydroxylated BAs.

SOAT [2] = molecular target: T1, SOAT; parameters: method as in Geyer et al. (2007); details: uptake via SOAT, same SOAT-HEK293 cell line; ref Geyer et al. (2007); cited from earlier work
ASBT [3] = molecular target: T2, ASBT (Homo sapiens, UniProt Q12908); test: Substrate screening: sodium-dependent uptake of radiolabeled compounds in ASBT-HEK293 cells; format: cell-based; details: radiolabeled bile acids 1 µM, 30 min, ASBT-HEK293, vs sodium-free control
T2 construct: The full-length open reading frames of NTCP, ASBT, and SOAT were cloned; expressed in transfected cells; host or cells: Flp-In T-REX HEK293 (ASBT-HEK293), tetracycline-induced
T2 sequence (Q12908 1-348): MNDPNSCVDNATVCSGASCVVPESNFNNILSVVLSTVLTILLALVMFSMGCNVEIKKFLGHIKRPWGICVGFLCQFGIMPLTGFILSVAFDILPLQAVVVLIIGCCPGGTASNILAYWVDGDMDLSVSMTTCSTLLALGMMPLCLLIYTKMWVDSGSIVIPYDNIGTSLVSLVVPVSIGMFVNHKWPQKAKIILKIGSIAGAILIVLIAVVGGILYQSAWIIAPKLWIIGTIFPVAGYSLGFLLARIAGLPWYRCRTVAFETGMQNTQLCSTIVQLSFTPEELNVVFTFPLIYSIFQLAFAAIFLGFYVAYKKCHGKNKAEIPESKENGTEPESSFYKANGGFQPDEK
Method: as §1, §2, §3

ASBT [4] = molecular target: T2, ASBT; test: Transport kinetics (concentration-dependent uptake) in ASBT-HEK293 cells; format: cell-based; details: uptake via ASBT, 1 min, 37°C
Method: as §2
FIGURE 2 NTCP, ASBT, and SOAT transport kinetics. Concentration-dependent uptake was analyzed in NTCP-HEK293, ASBT-HEK293, and SOAT-HEK293 cells for the indicated substrates at increasing substrate concentrations. Stably transfected HEK293 cells were pretreated with 1 μg/ml tetracycline to induce carrier expression. HEK293-FlpIn cells were used as control. Uptake was analyzed for 1 min at 37°C. Afterward, the medium was removed and each cell monolayer was washed and processed to determine the protein content and cell-associated radioactivity. Specific uptake was calculated by subtracting non-specific uptake of the HEK293-FlpIn control cells (open squares) from uptake into carrier-overexpressing HEK293 cells (filled squares) and is shown by broken lines. The values represent means ± SD of duplicate experiments, each with triplicate determinations (n = 6).

SOAT [5] = molecular target: T1, SOAT; test: Transport kinetics (concentration-dependent uptake) in SOAT-HEK293 cells; format: cell-based; details: uptake via SOAT, 1 min, 37°C
Method: Cells were washed three times with phosphate buffered saline (PBS) (137 mM NaCl, 2.7 mM KCl, 1.5 mM KH2PO4, 7.3 mM Na2HPO4, pH 7.4, 37°C). Afterward, cells were preincubated at 37°C with sodium transport buffer (containing 142.9 mM NaCl, 4.7 mM KCl, 1.2 mM MgSO4, 1.2 mM KH2PO4, 1.8 mM CaCl2, and 20 mM HEPES (all chemicals from Sigma-Aldrich), adjusted to pH 7.4), or with choline transport buffer (equimolar substitution of sodium chloride with choline chloride). Uptake experiments were initiated by replacing the preincubation buffer by 500 μL transport buffer containing the radiolabeled test compound and were performed at 37°C. Transport was terminated by removing the transport buffer and washing five-times with ice-cold PBS. Cell monolayers were lysed in 1 N NaOH with 0.1% SDS and the cell-associated radioactivity was determined by liquid scintillation counting. Protein content of individual wells was determined by Lowry assay as reported before ([Geyer et al., 2007]).
FIGURE 2 NTCP, ASBT, and SOAT transport kinetics. Concentration-dependent uptake was analyzed in NTCP-HEK293, ASBT-HEK293, and SOAT-HEK293 cells for the indicated substrates at increasing substrate concentrations. […] Uptake was analyzed for 1 min at 37°C. Afterward, the medium was removed and each cell monolayer was washed and processed to determine the protein content and cell-associated radioactivity. […]

HDV = details: NTCP expressing HepG2 hepatoma cells, trans-inhibitory effect; ref Lowjaga et al., 2021; cited from earlier work

SMILES | Transport activity grading SOAT (mean uptake) (SOAT [1]; radiolabeled steroid compounds 200 nM, 10 min) | Apparent K m (SOAT [2]) [µM] | V max (SOAT [2]) [pmol/mg protein/min] | Transport activity grading ASBT (mean uptake) (ASBT [3]) | Apparent K m (ASBT [4]) [µM] | V max (ASBT [4]) [pmol/mg protein/min] | Transport activity grading SOAT (mean uptake) (SOAT [1]; radiolabeled bile acids 1 µM, 30 min) | Apparent K m (SOAT [5]) [µM] | V max (SOAT [5]) [pmol/mg protein/min] | in vitro HDV infection (HDV)
C[C@]12CC[C@H](OS(=O)(=O)O)CC1=CC[C@@H]1[C@@H]2CC[C@]2(C)C(=O)CC[C@@H]12 [DHEAS, Dehydroepiandrosterone sulfate] | ++ (“++” for values between 10 and 100) | 28.7 ± 3.9 | 1899 ± 81 | – | – | – | – | – | – | –
C[C@H](CCC(=O)NCCS(=O)(=O)O)[C@H]1CC[C@H]2[C@@H]3[C@H](O)C[C@@H]4C[C@H](O)CC[C@]4(C)[C@H]3C[C@H](O)[C@]12C [Taurocholic acid] | – | – | – | ++ (“++” for values between 500 and 1000) | 14.7 ± 1.5 | 1821 ± 75.1 | – | – | – | –
C[C@H](CCC(=O)NCCS(=O)(=O)O)[C@H]1CC[C@H]2[C@@H]3CC[C@@H]4C[C@H](O)CC[C@]4(C)[C@H]3CC[C@]12C [Taurolithocholic acid] | – | – | – | +++ (“+++” for values above 1000 pmol/mg protein/30 min) | 5.9 ± 1.8 | 1585 ± 99.7 | ++ (“++” for values between 500 and 1000) | 19.3 ± 6.8 | 617 ± 57 | inhibited in vitro HDV infection
